Measurements taken from patent US7989454B2, “Leukotriene B4 inhibitors” (Hoffmann-La Roche Inc., priority 2002, dated 2011).

Tested on: BLT1 and BLT2 receptors
Assay: Ca2+ flux assay for LTB4 antagonist assay (HL-60 FLIPR)
Format: cell-based, Human
Conditions: retinoic acid induced HL-60 cells endogenously expressing BLT1 and BLT2; inhibition of LTB4-induced Ca2+ flux; 30 min compound preincubation; read-out: LTB4 antagonism (HL-60 FLIPR)
Protocol: Ca^2+ Flux Assay for LTB4 Antagonist Assay
Human leukemia HL-60 cells endogenously expressing BLT1 and BLT2 receptors were cultured in RPMI-1640 medium supplemented with 20% fetal bovine serum, 2 mM glutamine, 100 U/mL penicillin and 100 ug/mL streptomycin.
Seventy two hours prior to experiment cells are counted using ViaCount reagent, centrifuged and resuspended at 2.0×10^5 cells/ml density with the complete growth media containing 1 μM retinoic acid (Sigma).
On a day of the experiment loading buffer (Calcium-3 Assay Kit, Molecular Devices) was prepared by dissolving the contents of one vial (Express Kit) into 500 ml Hank's Balanced Salt Solution containing 20 mM HEPES and 5 mM probenecid. Equal volume of the loading buffer was mixed with the replacement buffer (Hank's Balanced Salt Solution containing 20 mM HEPES, 0.05% BSA and 5 mM probenecid). Retinoic acid induced HL-60 cells were counted using ViaCount reagent, centrifuged and resuspended at 2.0×10^6 cells/mL density with the loading buffer/replacement buffer, dispensed into 384 well black/clear microplates (Falcon)(25 μL/well) and placed in a 37° C./5% CO2 incubator for 1 hour.
During the incubation, test compounds were prepared at 6× the desired concentration in HBSS/20 mM HEPES/0.05% BSA as well as LTB4 (Biomol) was prepared at 2.2× concentration in HBSS/20 mM HEPES/0.5% BSA buffer.
After the incubation, both the cell and compound plates were brought to the FLIPR and 5 μL of the diluted compounds were transferred to the cell plates by the FLIPR. Plates were then incubated for 30 min at room temperature. After the ½ hour incubation, plates were returned to the FLIPR and 25 μL of 2.2×LTB4 was added to the cell plates. During the assay, fluorescence readings were taken simultaneously from all 384 wells of the cell plate every 1.5 seconds. Five readings were taken to establish a stable baseline, then 25 μL (LTB4) of sample was rapidly and simultaneously added to each well of the cell plate. The fluorescence was continuously monitored before, during and after sample addition for a total elapsed time of 100 seconds. Responses (increase in peak fluorescence) in each well following agonist addition was determined. The initial fluorescence reading from each well, prior to ligand stimulation, was used a zero baseline value for the data from that well. The responses are expressed as % inhibition of the neutral control (neural control: wells that received buffer plus DMSO but no test compound).

IC50	Structure (SMILES)
0.28 nM	CN(C)C(=O)c1cc(OCCCCCCc2cccc(OCCCC(=O)O)c2CCC(=O)O)cc(-c2ccsc2)c1 [Example 85, 4-{2-(2-Carboxy-ethyl)-3-[6-(3-dimethylcarbamoyl-5-thiophen-3-yl-phenoxy)-hexyl]-phenoxy}-butyric acid]
2.41 nM	CNC(=O)c1cc(OCCCCCCc2cccc(OCCCC(=O)O)c2CCC(=O)O)cc(-c2ccc3c(c2)OCCO3)c1 [Example 77, 4-(2-(2-Carboxy-ethyl)-3-{6-[3-(2,3-dihydro-benzo[1,4]dioxin-6-yl)-5-methylcarbamoyl-phenoxy]-hexyl}-phenoxy)-butyric acid]
7.46 nM	CC1CCCN(C(=O)c2cc(OCCCCCCc3cccc(OCCCC(=O)O)c3CCC(=O)O)cc(-c3ccc4c(c3)OCO4)c2)C1 (stereo not shown) [Example 46, 4-[3-{6-[3-Benzo[1,3]dioxol-5-yl-5-(3-methyl-piperidine-1-carbonyl)-phenoxy]-hexyl}-2-(2-carboxy-ethyl)-phenoxy]-butyric acid]
0.1 nM	CN(C)C(=O)c1cc(OCCCCCCc2cccc(OCCCC(=O)O)c2CCC(=O)O)cc(-c2ccc3c(c2)OCO3)c1 [Example 53, 4-[3-[6-(3-Benzo[1,3]dioxol-5-yl-5-dimethylcarbamoyl-phenoxy)-hexyl]-2-(2-carboxy-ethyl)-phenoxy]-butyric acid]
0.79 nM	Cc1ccc(-c2cc(OCCCCCCc3cccc(OCCCC(=O)O)c3CCC(=O)O)cc(C(=O)N(C)C)c2)cc1F [Example 105, 4-{2-(2-Carboxy-ethyl)-3-[6-(5-dimethylcarbamoyl-3′-fluoro-4′-methyl-biphenyl-3-yloxy)-hexyl]-phenoxy}-butyric acid]
0.21 nM	O=C(O)CCCOc1cccc(CCCCCCOc2cc(C(=O)NC3CCC3)cc(-c3ccc4c(c3)OCO4)c2)c1CCC(=O)O [Example 61, 4-[3-[6-(3-Benzo[1,3]dioxol-5-yl-5-cyclobutylcarbamoyl-phenoxy)-hexyl]-2-(2-carboxy-ethyl)-phenoxy]-butyric acid]
0.08 nM	O=C(O)CCCOc1cccc(CCCCCCOc2cc(C(=O)N3CCNCC3)cc(-c3ccc4c(c3)OCO4)c2)c1CCC(=O)O [Example 44, 4-[3-{6-[3-Benzo[1,3]dioxol-5-yl-5-(piperazine-1-carbonyl)-phenoxy]-hexyl}-2-(2-carboxy-ethyl)-phenoxy]-butyric acid]
52.2 nM	O=C(O)CCCOc1cccc(CCCCCCOc2cc(C(=O)NC3CCC3)cc(-c3cccc(F)c3)c2)c1CCC(=O)O [Example 67, 4-{2-(2-Carboxy-ethyl)-3-[6-(5-cyclobutylcarbamoyl-3′-fluoro-biphenyl-3-yloxy)-hexyl]-phenoxy}-butyric acid]
0.21 nM	O=C(O)CCCOc1cccc(CCCCCCOc2cc(C(=O)N3CCCCC3)cc(-c3ccc4c(c3)OCO4)c2)c1CCC(=O)O [Example 42, 4-[3-{6-[3-Benzo[1,3]dioxol-5-yl-5-(piperidine-1-carbonyl)-phenoxy]-hexyl}-2-(2-carboxy-ethyl)-phenoxy]-butyric acid]
0.2 nM	NC(=O)c1cc(OCCCCCCc2cccc(OCCCC(=O)O)c2CCC(=O)O)cc(-c2ccc3c(c2)OCO3)c1 [Example 55, 4-[3-[6-(3-Benzo[1,3]dioxol-5-yl-5-carbamoyl-phenoxy)-hexyl]-2-(2-carboxy-ethyl)-phenoxy]-butyric acid]
0.24 nM	Cc1ccc(-c2cc(OCCCCCCc3cccc(OCCCC(=O)O)c3CCC(=O)O)cc(C(=O)N(C)C)c2)cc1 [Example 112, 4-{2-(2-Carboxy-ethyl)-3-[6-(5-dimethylcarbamoyl-4′-methyl-biphenyl-3-yloxy)-hexyl]-phenoxy}-butyric acid]
0.22 nM	CN1CCN(C(=O)c2cc(OCCCCCCc3cccc(OCCCC(=O)O)c3CCC(=O)O)cc(-c3ccccc3)c2)CC1 [Example 28, 4-(2-(2-Carboxy-ethyl)-3-{6-[5-(4-methyl-piperazine-1-carbonyl)-biphenyl-3-yloxy]-hexyl}-phenoxy)-butyric acid]
299 nM	O=C(O)CCCOc1cccc(CCCCCCOc2cc(C(=O)NCc3ccccc3)cc(-c3c(F)cccc3F)c2)c1CCC(=O)O [Example 5, 4-[3-[6-(5-Benzylcarbamoyl-2′,6′-difluoro-biphenyl-3-yloxy)-hexyl]-2-(2-carboxy-ethyl)-phenoxy]-butyric acid]
0.14 nM	CN1CCCN(C(=O)c2cc(OCCCCCCc3cccc(OCCCC(=O)O)c3CCC(=O)O)cc(-c3ccc4c(c3)OCO4)c2)CC1 [Example 36, 4-[3-{6-[3-Benzo[1,3]dioxol-5-yl-5-(4-methyl-[1,4]diazepane-1-carbonyl)-phenoxy]-hexyl}-2-(2-carboxy-ethyl)-phenoxy]-butyric acid]
47.3 nM	Cc1cscc1-c1cc(OCCCCCCc2cccc(OCCCC(=O)O)c2CCC(=O)O)cc(C(=O)N2CCN(C)CC2)c1 [Example 24, 4-(2-(2-Carboxy-ethyl)-3-{6-[3-(4-methyl-piperazine-1-carbonyl)-5-(4-methyl-thiophen-3-yl)-phenoxy]-hexyl}-phenoxy)-butyric acid]
0.08 nM	O=C(O)CCCOc1cccc(CCCCCCOc2cc(C(=O)NC3CC3)cc(-c3ccc4c(c3)OCO4)c2)c1CCC(=O)O [Example 51, 4-[3-[6-(3-Benzo[1,3]dioxol-5-yl-5-cyclopropylcarbamoyl-phenoxy)-hexyl]-2-(2-carboxy-ethyl)-phenoxy]-butyric acid]
0.25 nM	CCN(C)C(=O)c1cc(OCCCCCCc2cccc(OCCCC(=O)O)c2CCC(=O)O)cc(-c2ccc3c(c2)OCO3)c1 [Example 73, 4-[3-{6-[3-Benzo[1,3]dioxol-5-yl-5-(ethyl-methyl-carbamoyl)-phenoxy]-hexyl}-2-(2-carboxy-ethyl)-phenoxy]-butyric acid]
15.6 nM	CN(C)C(=O)c1cc(C#CCCCCCc2cccc(OCCCC(=O)O)c2CCC(=O)O)cc(-c2ccc(O)cc2)c1 [Example 122, 4-{2-(2-Carboxy-ethyl)-3-[7-(5-dimethylcarbamoyl-4′-hydroxy-biphenyl-3-yl)-hept-6-ynyl]-phenoxy}-butyric acid]
19.5 nM	CN1CCN(C(=O)c2cc(CCCCCCCc3cccc(OCCCC(=O)O)c3CCC(=O)O)cc(-c3ccccc3)c2)CC1 [Example 118, 4-(2-(2-Carboxy-ethyl)-3-{7-[5-(4-methyl-piperazine-1-carbonyl)-biphenyl-3-yl]-heptyl}-phenoxy)-butyric acid]
